# Source: patent publication US5726156A, “Cytokine regulatory agents and methods of use in pathologies and conditions associated with altered cytokine levels” (Trega Biosciences, Inc., priority 1995, dated 1998)
# Experiments:
# [1] = tested on: kidney (renal ischemia/reperfusion); assay: Renal ischemia-reperfusion injury; type: in vivo, rats; set-up: RVR: unit not given here; details: I/R + EX-2 (50 or 500 μg/kg iv, dose not given); 1 hr clamping, after 60 min reperfusion
# Protocol: Sprague-Dawley rats (250-300 g) were anesthetized with inactin® (120 mg/kg). After deep anesthesia was assured, the rats were cannulated in the trachea with polyethylene (PE) tubing (PE 240), jugular vein, femoral artery, bladder (PE 50 for previous 3 cannulations), and left ureter (stretched PE 50). Once cannulation was completed, a 2 cm flank incision above the left kidney was performed and the renal pelvis and vascular bundle were exposed. The tissue surrounding the left renal artery was gently dissected away from the artery. The exposed renal artery was clamped for 1 hr using a small vascular cross-over clamp. Just prior to clamping, EX-2 (50 or 500 μg/kg), ketorolac (KETO, 1 mg/kg), or vehicle was administered intravenously (iv) After 1 hr of clamping (ischemia), the clamp was gently removed with care taken to avoid damaging either the renal artery or nerves.
# [2] = tested on: kidney (cyclosporine-induced nephrotoxicity); assay: Cyclosporine-induced nephrotoxicity; type: in vivo, rats
# Protocol: In the first study, male Sprague-Dawley rats (n=43) with a weight range of 240-290 g at the initiation of the cyclosporine A (CsA) treatment were divided into 4 weight matched groups. The groups were as follows: (1) Control: no CsA, no EX-2, treatment only with CsA vehicle (PBS) PO and EX-2 vehicle (also PBS) IP; (2) CsA: treatment with CsA (50 mg/kg in PBS administered PO daily at 0830 hr for 9 days) and IP injections of PBS (Ex-2 vehicle); (3) CsA and 50 μg: CsA treatment identical to group 2 with the addition of EX-2 (50 μg/kg IP administered daily at 0800 and 1700 hr in EX-2 vehicle); and (4) CsA and 500 μg: CsA treatment identical to groups 2 and 3, and EX-2 treatment protocol similar to group 3 except that the dose of EX-2 was 500 μg/kg BW. […] Renal blood flow was determined by the inulin extraction technique. […]
# In the second study, male Sprague-Dawley rats (n=3l) with a weight range of 240-290 g at the time of initiation of the cyclosporine treatment were divided into 4 weight-matched groups. […] Renal hemodynamics were determined and extracellular fluid volumes were also assessed.
# In the second study, where extracellular fluid volumes (ECF) were measured, there were no differences in ECF among control and treatment groups (27.6±1.9 in control, 27.5±1.7 in CsA and vehicle, 26.2±0.9 in CsA +200 μg/kg EX-2, and 25.7±1.4% in CsA +500 μg/kg EX-2). […]
# [3] = tested on: inducible nitric oxide synthase (iNOS); assay: Inducible nitric oxide synthase (iNOS), cGMP accumulation in rat aorta smooth muscle cells; type: cell-based; details: RASMC induced with LPS, IL-1β or TNF-α; 0.1 or 1 μM EX-2
# Protocol: Rat aorta smooth muscle cells (RASMC) were isolated from male rats (325-350 g) using the previously published procedures of Gelsterfer et al., Circ. Res. 62:749-756 (1988), which is incorporated herein by reference. Cells were positively identified as smooth muscle cells by indirect immunofluorescent staining for anti-α-actin, using a mouse anti-α-actin antibody and anti-mouse IgG FITC conjugate. Cells were grown in T-75 tissue culture flasks (Corning Delbelco's Glass, Inc.; Corning, NY) in 50% F12 and 50% Delbelco's Modified Eagle Medium (DMEM) supplemented with 10% bovine serum, 0.2 g/1 L-glutamine, penicillin (100 U/ml) and streptomycin (0.1 mg/ml).
# Cells between passages 1-5 were pretreated with one of the following: vehicle, LPS (1 μg/ml), IL-1β (10 U/ml), or TNF-α (100 U/ml) for 6 hr. […] Accumulation of cGMP was determined following exposure to 0.3 mM 3-isobutyl-1-methyl xanthine (IBMX in the presence or absence of 1 mM L-arginine. Medium was then rapidly aspirated and 500 μl of 0.1N HCl was added to each well to stop the reactions and extract cGMP. Thirty min later, the HC1 extract was collected and cell remnants removed from the wells by adding hot 1.0N NaOH and scraping the well with a rubber policeman. The HCl extract was analyzed for cGMP by RIA and the NaOH-solubilized cell remnants were used for protein determination. […]
substance,measurement,setting,value
Ac-Nle-Gln-His-(D)Phe-Arg-(D)Trp-Gly-NH2 [EX-2],GFR,[1],0.5 ± 0.1
same,RPF,[1],2.3 ± 0.3
same,RVR,[1],1.8 ± 0.2
same,renal blood flow,"[2]; CsA-treated rats, EX-2 IP twice daily",improved blood flow to values not different from control
same,GFR,"[2]; compared to CsA and vehicle controls, in both studies",significantly increased GFR
same,"% Reduction of induced increase, iNOS, cGMP (pmol/100 mg/15 min)",[3],60%
